Experimental findings from publication PMC9368227, “Investigation of Radiotracer Metabolic Stability In Vitro with CYP-Overexpressing Hepatoma Cell Lines” (Cells, 2022) are described below.

For data set [1], the system named is HepG2 CYP2C19. Kind of data set: Radiotracer metabolic stability, CYP2C19-overexpressing HepG2 cells. Format: in vitro ADME, human. On the procedure: (§1) CYP-overexpressing human hepatocellular carcinoma cells (HepG2) were previously generated on the basis of subcloning human CYP1A2 [18], CYP2C19 [20], and CYP3A4 [21] cDNA into a lentiviral expression vector. The cDNA expression in the resulting vector was controlled by the human cytomegalovirus (CMV) promoter. The lentivirus expression vectors were used to produce recombinant lentivirus particles according to standard methods to infect HepG2 cells. Infected cells were selected with 3 µg/mL blasticidin for CYP2C19 and CYP3A4 and 500 µg/mL zeocin for CYP1A2 overexpression 48 h after infection. Within 3–4 weeks, antibiotic-resistant cell colonies were picked to obtain single cell-derived HepG2 clones. For more detailed information on the generation procedure of CYP-overexpressing HepG2 cells, see Steinbrecht et al..
HepG2 cells were cultured in DMEM GlutaMax (Gibco, Paisley, UK) with 10% fetal calf serum (FCS) and with selective antibiotics (penicillin/streptomycin for wildtype, Zeocin (InvivoGen, San Diego, CA, USA) for CYP1A2, and Blasticidin (Gibco, Carlsbad, CA, USA) for CYP2C19 and CYP3A4 cultures). As a negative control, cultures of CHO cultivated in Ham’s F-12 medium (Gibco) with 10% FCS and 2 mM glutamine were added for the radiotracer experiments. Cells were handled under a laminar flow hood (Thermo Scientific^TM Safe 2020, Langenselbold, Germany) and were split once or twice a week by trypsinization. Cell cultures were stored horizontally in a humidified incubator (Heracell240i) at 37 °C and 5% CO2. During the time of experimental work, the utilized cell lines were regularly checked for mycoplasma. Cells were seeded in duplicates into a 96-well plate (CellStar®) with a density of 3 × 10^5 cells/well and cultured until the next day at 37 °C and 5% CO2. Cell density was determined with a cell counter (CASY® Model TT from Schärfe System, Reutlingen, Germany). Before the addition of substrates, cells were washed twice with Krebs–Henseleit buffer (KHB). The HEPES-supplemented Krebs–Henseleit buffer (pH 7.4, KHB) was freshly prepared using HEPES (5.95 g/L), D-glucose (2.0 g/L), magnesium sulfate (0.141 g/L), potassium dihydrogenphosphate (0.16 g/L), potassium chloride (0.35 g/L), sodium chloride (6.9 g/L), calcium chloride dihydrate (0.373 g/L), and sodium bicarbonate (2.1 g/L), followed by adjustment to pH 7.4 with NaOH. The utilized substances within this study were neither found (see Supplementary Materials, Figure S14) nor reported to be cytotoxic within the utilized concentration range and incubation duration.
Incubations with radiotracer compounds were conducted, on the one hand, with radioactive ^18F-labeled compounds alone (time dependency) and, on the other hand, in the presence of 50 µM nonradioactive reference (carrier addition). For the investigation of a time-dependent metabolite formation, 2 µL aliquots were withdrawn from the supernatant, directly spotted onto the TLC plate, and analyzed as described above. The same procedure was performed for carrier-added samples.
UPLC–MS analyses were performed to verify the degradation behavior of the test compounds and to gain insights into the identity of the formed metabolites. Using radiotracer incubation samples, 40 µL aliquots of the carrier-added incubations were withdrawn followed by addition of 160 µL of ACN and centrifugation (14,000 rpm (18,800–20,800× g), 4 °C, 5 min). Samples were frozen at −20 °C, and activity was allowed to decay before further mass-spectrometric analyses. Additionally, incubations with the nonradioactive references were carried out with 100 nM or 50 µM (according to the carrier-added samples) and analyzed. UPLC–MS/MS was performed using System 2 (55% isocratic elution for quantification of intact compound, or 25–75% gradient for nonradioactive metabolite analysis). The MRM mode was optimized with a solution of respective reference compounds diluted in eluent. […]

Data set [2] relates to human liver microsomes (HLMs). Kind of data set: Microsome assay, human liver microsomes. The format is in vitro ADME. The settings on record: for Amount of intact tracer: radio-TLC. On the procedure:
(§2) The stability of [^18F]1 toward liver microsomes was analyzed under oxidative conditions with MLMs (MSMCP, Lot: MS046-C) and HLMs (HMMCPL; Lot: PL050E-B) according to a previously described procedure. In brief, 12.5 µL of the respective microsomes (final 1 mg/mL) were mixed with 110.4 µL of PBS, followed by the addition of 100 µL of [^18F]1 (with 5 MBq and 1% ethanol; final 0.4% ethanol) and 2.1 µL of reference compound (final concentration 50 µM 1), or an equivalent of DMSO. The resulting mixture was mixed at 37 °C for 5 min, and the reaction was then initiated by the addition of 25 µL of NADPH (final 2 mM). After 1 h incubation, the resulting samples were mixed with ice-cold ACN (1/4, v/v) and vortexed for 30 s, placed on ice for 4 min, and finally centrifuged at 13,200 rpm for 5 min at 4 °C. The supernatant was separated and used for further analysis by radio-HPLC (6–10 µL injection volume; System 1b with 25–75% gradient elution) and radio-TLC analysis (2 µL applied on TLC, analysis as described above).

The test system of data set [3] is HepG2 CYP1A2. The experiment in a line: Radiotracer metabolic stability, CYP1A2-overexpressing HepG2 cells. The format is in vitro ADME, human. The settings on record: radio-TLC. On the procedure:
as §1
HepG2 cells were cultured in DMEM GlutaMax (Gibco, Paisley, UK) with 10% fetal calf serum (FCS) and with selective antibiotics (penicillin/streptomycin for wildtype, Zeocin (InvivoGen, San Diego, CA, USA) for CYP1A2, and Blasticidin (Gibco, Carlsbad, CA, USA) for CYP2C19 and CYP3A4 cultures). […] Cell density was determined with a cell counter (CASY® Model TT from Schärfe System, Reutlingen, Germany). […]
Incubations with radiotracer compounds were conducted, on the one hand, with radioactive ^18F-labeled compounds alone (time dependency) and, on the other hand, in the presence of 50 µM nonradioactive reference (carrier addition). For the investigation of a time-dependent metabolite formation, 2 µL aliquots were withdrawn from the supernatant, directly spotted onto the TLC plate, and analyzed as described above. […]
UPLC–MS analyses were performed to verify the degradation behavior of the test compounds and to gain insights into the identity of the formed metabolites. […] Additionally, incubations with the nonradioactive references were carried out with 100 nM or 50 µM (according to the carrier-added samples) and analyzed. UPLC–MS/MS was performed using System 2 (55% isocratic elution for quantification of intact compound, or 25–75% gradient for nonradioactive metabolite analysis). […]

The test system of data set [4] is HepG2 CYP3A4. Kind of data set: Radiotracer metabolic stability, CYP3A4-overexpressing HepG2 cells. Format: in vitro ADME, human. The settings on record: HepG2 CYP3A4, up to 2 h; radio-TLC. The method, then: as §1
HepG2 cells were cultured in DMEM GlutaMax (Gibco, Paisley, UK) with 10% fetal calf serum (FCS) and with selective antibiotics (penicillin/streptomycin for wildtype, Zeocin (InvivoGen, San Diego, CA, USA) for CYP1A2, and Blasticidin (Gibco, Carlsbad, CA, USA) for CYP2C19 and CYP3A4 cultures). As a negative control, cultures of CHO cultivated in Ham’s F-12 medium (Gibco) with 10% FCS and 2 mM glutamine were added for the radiotracer experiments. […] Cell density was determined with a cell counter (CASY® Model TT from Schärfe System, Reutlingen, Germany). […]

Data set [5] has as its system murine liver microsomes (MLMs). The experiment in a line: Microsome assay, murine liver microsomes. The format is in vitro ADME. The settings on record: 1 h incubation. The method, then: as §2
In general terms: Liver microsomes are a subcellular fraction often used to study metabolism.

[6] abbreviates: 1 h, CA versus without carrier addition.

In the case of `Cc1ccc(-c2cc(C[18F])nn2-c2ccc(S(C)(=O)=O)cc2)cc1` [[^18F]1, 3-([^18F]fluoromethyl)-1-[4-(methylsulfonyl)phenyl]-5-(p-tolyl)-1H-pyrazole], the “Increase of intact tracer amount with carrier addition” value is 10 fold in data set [1] (setting [6]) and “sevenfold” in data set [2] (setting [6]). Moreover, the “Amount of intact tracer” value in data set [1] (1 h, carrier-added (CA), 50 µM 1, radio-TLC) worked out at 67.2%; in data set [1] (1 h, without carrier addition, 24 MBq/mL (460 nM), radio-TLC), 6.6%; in data set [2] (1 h, carrier-added (CA), 50 µM 1) it was 30.3%; in data set [2] (1 h, without carrier addition, 38 MBq/mL (931 nM), 1 mg/mL microsomes, NADPH), 4.2%. Moreover, the “Intact tracer in supernatant” value in data set [1] (1 h incubation, 2–4 MBq/mL (28–187 nM), radio-TLC) turned out to be 1.3%; in data set [3] (2 h incubation, 2–4 MBq/mL (28–187 nM)) it was 14.6%. Moreover, the “Metabolic turnover / stability of radiotracer (in words)” value in data set [1] (HepG2 CYP2C19, up to 2 h, radio-TLC) is “formation of radiometabolites was observed”; in data set [3] (HepG2 CYP1A2, up to 2 h) it was “formation of radiometabolites was observed”; in data set [4], “mainly intact radiotracer was found”. The “Formation of second metabolite (M2)” value was “observed” in data set [2] (1 h incubation) and “did not lead to the second metabolite” in data set [5].
